Tested on: NF-κ B activation
Assay: Inhibitory activity of NF-κB activation, luciferase reporter assay under TNF-α stimulation in HepG2
Format: cell-based, human
Settings: HepG2, TNF-α 40 ng/ml, 4 hours; for inhibition at 1 µg/mL / inhibition at 10 µg/mL: Homo sapiens, read-out: Inhibitory rate against NF-κB activation (%)
Description: Measurement of Inhibitory Activity of NF-κB activation
Using a transfection reagent (Effectene; QIAGEN), the human hepatoma cell strain HepG2 was transfected with a plasmid (pNF κ B-Luc Reporter Plasmid; […]) integrated with an oligonucleotide having five tandem copies of NF-κ B binding sequences([…]) on a upstream region of firefly luciferase gene(Luc) according to the QIAGEN's protocol, and the cells were incubated for 6 to 24 hours. After addition of TNF-α (40 ng/ml) in the presence or absence of a test compound, the cells were incubated for 4 hours, and intracellular luciferase activity was measured by using PicaGene LT (TOYO INK MFG Co., Ltd.) and a chemical luminescence measurement apparatus ([…]luor Plus; TECAN). The inhibitory ratio was measured as a ratio relative to the value of the luciferase activity in the absence of the test compound.

Structure (SMILES)	inhibition at 1 µg/mL (Drug concentration at 1 μg/mL) [%]	inhibition at 10 µg/mL (Drug concentration at 10 μg/mL) [%]	Inhibitory rate against NF-κB activation (%) (Drug concentration at 1 μg/mL)	Inhibitory rate against NF-κB activation (%) (Drug concentration at 10 μg/mL)
CC(=O)Oc1ccccc1C(=O)Nc1cc(C(F)(F)F)cc(C(F)(F)F)c1 [compound 1, 2-acetoxy-N-[3,5-bis(trifluoromethyl)phenyl]benzamide]	90.9	97.1		
O=C(Nc1cc(Br)cc(C(F)(F)F)c1)c1cc(Cl)ccc1O [compound 104]			97.2	99.2
O=C(Nc1nc(-c2ccc(Cl)c(Cl)c2)cs1)c1cc(Cl)ccc1O [compound 260, 5-Chloro-2-hydroxy-N-[4-(3,4-dichlorophenyl)thiazol-2-yl]benzamide]	> 99.9			
O=C(Nc1cc(Cl)cc(Cl)c1)c1cc([N+](=O)[O-])ccc1O [compound 130]				70.6
CC(C)(C)CC(C)(C)c1ccc(O)c(C(=O)Nc2cc(C(F)(F)F)cc(C(F)(F)F)c2)c1 [compound 60]			94.0	99.1
O=C(Nc1cc(C(F)(F)F)cc(C(F)(F)F)c1)c1cc(C(F)(F)F)ccc1O [compound 25]			96.4	99.6
CC(C)C(=O)c1ccc(O)c(C(=O)Nc2cc(C(F)(F)F)cc(C(F)(F)F)c2)c1 [compound 34, N-[3,5-Bis(trifluoromethyl)phenyl]-2-hydroxy-5-isobutyrylbenzamide]	90.7	98.7		
Cc1ccc(O)c(C(=O)Nc2cc(C(F)(F)F)ccc2C(F)(F)F)c1 [compound 84]			92.6	96.6
COc1ccc(C(F)(F)F)cc1NC(=O)c1cc(Br)ccc1O [compound 94]			76.6	93.4
COc1ccc(O)c(C(=O)Nc2cc(C(F)(F)F)cc(C(F)(F)F)c2)c1 [compound 33]			30.7	97.0
COc1cc(NC(=O)c2cc(Br)ccc2O)cc(C(F)(F)F)c1 [compound 93]			84.5	97.2
O=C(Nc1cc(C(F)(F)F)cc(C(F)(F)F)c1)c1ccc(-c2ccccc2)cc1O [compound 262, N-[3,5-Bis(trifluoromethyl)phenyl]-2-hydroxy-4-phenylbenzamide]	> 99.9			
O=C(Nc1cc(C(F)(F)F)cc(C(F)(F)F)c1)c1ccccc1O [compound 2]			93.3	95.6
COC(=O)C(C#N)=Cc1ccc(O)c(C(=O)Nc2cc(C(F)(F)F)cc(C(F)(F)F)c2)c1 [compound 17, 3-({N-[3,5-Bis(trifluoromethyl)phenyl]carbamoyl}-4-hydroxyphenyl)-2-cyanoacrylic acid methyl ester]			74.9	99.1
Cc1cccc(C(=O)Nc2cc(C(F)(F)F)cc(C(F)(F)F)c2)c1O [compound 58, N-[3,5-bis(trifluoromethyl)phenyl]-2-hydroxy-3-methylbenzamide]	88.2	95		
CCCCCCOc1ccc(S(C)(=O)=O)cc1NC(=O)c1cc(Cl)ccc1O [compound 165]			95.9	99.4
Cc1ccc(C(C)C)cc1NC(=O)c1cc(Cl)ccc1O [compound 151]			85.8	98.2
O=C(Nc1cc(C(F)(F)F)cc(C(F)(F)F)c1)c1cccc(Cl)c1O [compound 64]			84.9	94.1

Structure (SMILES)	inhibition at 1 µg/mL (Drug concentration at 1 μg/mL) [%]	inhibition at 10 µg/mL (Drug concentration at 10 μg/mL) [%]	Inhibitory rate against NF-κB activation (%) (Drug concentration at 1 μg/mL)	Inhibitory rate against NF-κB activation (%) (Drug concentration at 10 μg/mL)
Cc1ccc(S(=O)(=O)c2ccc(Cl)cc2NC(=O)c2cc(Cl)ccc2O)cc1 [compound 168]			46.7	97.8
O=C(Nc1cc(C(F)(F)F)cc(C(F)(F)F)c1)c1cc(-c2ccccn2)ccc1O [compound 32, N-[3,5-Bis(trifluoromethyl)phenyl]-2-hydroxy-5-(pyridin-2-yl)benzamide]	90.4	99		
N#CC(C#N)=Cc1ccc(O)c(C(=O)Nc2cc(C(F)(F)F)cc(C(F)(F)F)c2)c1 [compound 16, N-[3,5-Bis(trifluoromethyl)phenyl]-5-(2,2-dicyanoethen-1-yl)-2-hydroxybenzamide]	42.7	99.4		
CC(C)(C)c1cc(NC(=O)c2cc([N+](=O)[O-])ccc2O)cc(C(C)(C)C)c1 [compound 146]			91.2	98.5
O=C(Nc1cc(C(F)(F)F)cc(C(F)(F)F)c1)c1cc2ccccc2cc1O [compound 72]			94.6	95.0
N#Cc1ccc(Cl)cc1NC(=O)c1cc(Cl)ccc1O [compound 154]			83.0	93.3
COc1ccc(-c2ccccc2)cc1NC(=O)c1cc(Cl)ccc1O [compound 141]			82.4	97.9
O=C(Nc1cc(C(F)(F)F)cc(C(F)(F)F)c1)c1cc(C(F)(F)C(F)(F)F)ccc1O [compound 26]			93.3	95.4
CCOc1ccc(OCC)c(NC(=O)c2cc(Cl)ccc2O)c1 [compound 152]			35.1	95.3
Cc1cnc(NC(=O)c2cc(Br)ccc2O)s1 [compound 190]				69.7
O=C(Nc1cc(F)ccc1F)c1cc(Cl)ccc1O [compound 179]			92.5	93.4
Cc1ccc(O)c(C(=O)Nc2cc(C(F)(F)F)cc(C(F)(F)F)c2)c1 [compound 10]			95.8	99.4
O=C(Nc1nc(-c2cc(C(F)(F)F)cc(C(F)(F)F)c2)cs1)c1cc(Cl)ccc1O [compound 231, 5-Chloro-2-hydroxy-N-{4-[3,5-bis(trifluoromethyl)phenyl]thiazol-2-yl}benzamide]	95.9	94.5		
Cc1ccc(-c2ccccc2)cc1NC(=O)c1cc(Cl)ccc1O [compound 172]			93.7	96.4
O=C(Nc1cc(C(F)(F)F)cc(C(F)(F)F)c1)c1cc(N=Nc2ccc(S(=O)(=O)Nc3ccccn3)cc2)ccc1O [compound 49]			19.4	89.1
O=C(Nc1nnc(C(F)(F)F)s1)c1ccccc1O [compound 237, 2-Hydroxy-N-(5-trifluoromethyl-1,3,4-thiadiazol-2-yl)benzamide]		81.9		
O=C(Nc1cccc(Br)n1)c1cc(Cl)ccc1O [compound 243]			84.2	95.1
O=C(Nc1nc(-c2cccc(C(F)(F)F)c2)cs1)c1cc(Cl)ccc1O [compound 265, 5-Chloro-2-hydroxy-N-{4-[3-(trifluoromethyl)phenyl]thiazol-2-yl}benzamide]	> 99.9			

From patent US20080234233A1, “MEDICAMENT FOR TREATMENT OF NEURODEGENERATIVE DISEASES” (INSTITUTE OF MEDICINAL MOLECULAR DESIGN INC., priority 2002, published 2008)
